In data set [1] the test system is Plasmodium berghei. In words: In vivo antimalarial activity against Plasmodium berghei infected in Balb/C mouse model assessed as parasite clearance at 30 mg/kg, po administered every 24 hrs for 3 days followed by chloroquine addition measured on day 4 by flow cytometric analysis relative to control. The format is functional. Particulars: time 4 day.
Data set [2] deals with Plasmodium falciparum. In words: In vivo antimalarial activity against Plasmodium falciparum infected in NMRI mouse. Format: functional.
Data set [3] can be described thus: Dissociation constant, pKa of compound. Format: physicochemical.
Data set [4] concerns Plasmodium falciparum. In words: Antimalarial activity against chloroquine sensitive Plasmodium falciparum 3D7 incubated for 72 hrs by malaria SYBR green I nucleic acid staining dye based fluorescence assay. Format: functional, organism-based. As to conditions: 3D7, 72 h.
Data set [5] has as its system Plasmodium falciparum. In words: Antimalarial activity against chloroquine resistant Plasmodium falciparum K1 incubated for 72 hrs by malaria SYBR green I nucleic acid staining dye based fluorescence assay. Format: functional, organism-based. Particulars: K1, 72 h.
In data set [6] the test system is Plasmodium falciparum. In words: Antimalarial activity against Plasmodium falciparum K1. The format is functional, organism-based.
The target in data set [7] is Voltage-gated inwardly rectifying potassium channel KCNH2 (Homo sapiens, UniProt Q12809). In words: Inhibition of human ERG. The format is toxicity.
Data set [8] relates to Plasmodium falciparum. In words: Antimalarial activity against Plasmodium falciparum NF54. The format is functional, organism-based.
The test system of data set [9] is Plasmodium falciparum. In words: In vivo antimalarial activity against Plasmodium falciparum infected in SCID mouse. The format is functional.
Data set [10] in a line: Inhibition of Plasmodium vivax DHODH.
In the next data set the target is CYP450 (Homo sapiens, UniProt P04798+P05177+P05181+P08684+P10632+P10635+P11509+P11712+P13584+P20813+P20815+P20853+P24462+P24903+P33260+P33261+P51589+P78329+P98187+Q02928+Q08477+Q16678+Q16696+Q5TCH4+Q6VVX0+Q7Z449+Q8TAV3+Q96SQ9+Q9HB55). In words: Inhibition of CYP450 (unknown origin). The format is ADME, protein assay.
A short description of data set [11]: Drug elimination in human urine assessed as unchanged fraction. Format: ADME. Particulars: read-out: Drug excretion.
The nature of data set [12]: Inhibition of Plasmodium falciparum DHODH expressed in Escherichia coli BL21 (DE3) cells by DCIP staining method.
A short description of data set [13]: Inhibition of Plasmodium vivax PI4K.
Data set [14] has as its system Plasmodium berghei. In words: In vivo antimalarial activity against Plasmodium berghei infected in SCID mouse. Format: functional.
The subject of the next data set is HepG2. In words: Cytotoxicity against human HepG2 cells. Format: functional, cell-based.
Data set [15] relates to Plasmodium falciparum. In words: Antimalarial activity against Plasmodium falciparum Dd2. Format: functional, organism-based.
For data set [16], the system named is Plasmodium falciparum. In words: Antimalarial activity against Plasmodium falciparum 3D7. The format is functional, organism-based.
The subject of another data set is L6. In words: Cytotoxicity against rat L6 cells. Format: functional, cell-based.
Data set [17] has as its system Plasmodium falciparum. In words: Antiplasmodial activity against chloroquine sensitive Plasmodium falciparum 3D7 incubated for 72 hrs by malaria SYBR green I nucleic acid staining dye based fluorescence assay. The format is functional, organism-based. Particulars: 3D7, 72 h.
In a further data set the test system is Plasmodium yoelii. In words: In vivo antimalarial activity against Plasmodium yoelii N-67 infected in Swiss mouse assessed as reduction in parasitemia level at 12.5 mg/kg, po measured on day 4 relative to control. The format is functional. On the set-up: scale not given: the % may be the effect or the level left. Particulars: time 4 day.
For data set [18], the system named is Plasmodium falciparum. In words: Antiplasmodial activity against chloroquine resistant Plasmodium falciparum K1 incubated for 72 hrs by malaria SYBR green I nucleic acid staining dye based fluorescence assay. Particulars: K1, 72 h. The format is functional, organism-based.
Data set [19] can be described thus: Toxicity in Swiss mouse infected with Plasmodium yoelii N-67 assessed as survival rate at 12.5 mg/kg, po measured on day 4 relative to control. As to conditions: in vivo, time 4 day, read-out: Activity. The format is organism-based.
A short description of data set [20]: Inhibition of Plasmodium falciparum DHODH expressed in Escherichia coli BL21 cells using L-dihydroorotate as substrate by DCIP staining method.
Data set [21] deals with Plasmodium falciparum. In words: Antimalarial activity against Plasmodium falciparum 3D7 incubated for 72 hrs by SYBR-green method. The format is functional, organism-based. As to conditions: 3D7, 72 h.
Data set [22] deals with Plasmodium yoelii nigeriensis. In words: In vivo antimalarial activity against Plasmodium yoelii nigeriensis infected in Swiss mouse. The format is functional.
In data set [23] the test system is Plasmodium falciparum. In words: Antimalarial activity against chloroquine-sensitive Plasmodium falciparum 3D7 by Giemsa staining method. Format: functional, organism-based.
For data set [24], the system named is Plasmodium falciparum. In words: Antimalarial activity against chloroquine-sensitive Plasmodium falciparum W2 assessed as parasitic LDH activity incubated for 72 hrs by malstat reagent method. The format is functional, organism-based. Particulars: W2, 72 h.
The nature of data set [25]: Cytotoxicity against African green monkey Vero cells. The format is toxicity, cell-based, Chlorocebus sabaeus.
The test system of data set [26] is Plasmodium falciparum. In words: Antimalarial activity against chloroquine-sensitive Plasmodium falciparum D6 assessed as parasitic LDH activity incubated for 72 hrs by malstat reagent method. The format is functional, organism-based. As to conditions: D6, 72 h.

In brackets after ≈: the same amount, converted by molar mass.

Voltage-gated inwardly rectifying potassium channel KCNH2, sequence (Q12809 whole entry): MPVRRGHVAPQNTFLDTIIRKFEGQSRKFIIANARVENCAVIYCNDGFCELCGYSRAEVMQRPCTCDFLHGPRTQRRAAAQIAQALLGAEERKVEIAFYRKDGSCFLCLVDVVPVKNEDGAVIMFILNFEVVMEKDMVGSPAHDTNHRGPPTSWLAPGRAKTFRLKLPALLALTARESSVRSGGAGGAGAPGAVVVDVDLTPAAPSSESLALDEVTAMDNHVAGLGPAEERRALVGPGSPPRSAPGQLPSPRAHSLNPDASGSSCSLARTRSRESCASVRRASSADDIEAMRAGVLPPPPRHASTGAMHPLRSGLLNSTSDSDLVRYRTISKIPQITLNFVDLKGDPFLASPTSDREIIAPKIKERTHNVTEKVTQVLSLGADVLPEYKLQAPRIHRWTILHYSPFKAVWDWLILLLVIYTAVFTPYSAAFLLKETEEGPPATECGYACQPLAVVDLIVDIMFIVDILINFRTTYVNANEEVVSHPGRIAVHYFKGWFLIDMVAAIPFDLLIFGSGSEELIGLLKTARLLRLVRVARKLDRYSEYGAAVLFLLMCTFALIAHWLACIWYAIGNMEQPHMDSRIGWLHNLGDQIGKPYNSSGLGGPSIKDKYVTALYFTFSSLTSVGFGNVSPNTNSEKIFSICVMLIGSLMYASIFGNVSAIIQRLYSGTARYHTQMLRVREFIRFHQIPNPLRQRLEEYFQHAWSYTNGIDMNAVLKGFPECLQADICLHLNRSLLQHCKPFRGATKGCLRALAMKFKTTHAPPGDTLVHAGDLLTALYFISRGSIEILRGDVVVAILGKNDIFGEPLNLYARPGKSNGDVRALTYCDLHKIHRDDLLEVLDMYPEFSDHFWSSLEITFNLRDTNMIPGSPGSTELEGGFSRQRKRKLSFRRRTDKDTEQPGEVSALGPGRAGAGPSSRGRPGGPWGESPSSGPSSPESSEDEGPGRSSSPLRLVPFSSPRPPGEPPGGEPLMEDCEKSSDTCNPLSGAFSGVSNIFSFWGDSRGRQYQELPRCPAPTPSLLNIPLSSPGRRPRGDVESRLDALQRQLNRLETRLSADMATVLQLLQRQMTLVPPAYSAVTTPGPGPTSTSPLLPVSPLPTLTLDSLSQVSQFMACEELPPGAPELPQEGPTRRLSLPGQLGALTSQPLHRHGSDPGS

Regarding `CN1CCN(c2nc(Cl)cc(NCCNc3ccnc4cc(Cl)ccc34)n2)CC1`, in the data set with Plasmodium berghei [1], the Activity was determined as 93.9%.
`C[C@H]1Cc2c([nH]c3cc(Cl)c(F)cc23)[C@@]2(N1)C(=O)Nc1ccc(Cl)cc12` [CIPARGAMIN]: in the data set with Plasmodium falciparum [2], the ED90 stood at 2.7 mg/kg. In addition, the pKa (commonly the pH at which an ionisable group is half protonated) in [3] is 4.6.
Regarding `CC1CCN(C[C@@H](CC2CCCCC2)Nc2ccnc3cc(Cl)ccc23)CC1`, the 50% inhibitory concentration (IC50) (as a rule, the concentration that gives 50% inhibition) came to 938 nM in the data set on Plasmodium falciparum [4] and 7 nM in the data set with Plasmodium falciparum [5].
Regarding `Cc1cc(Nc2ccc(S(F)(F)(F)(F)F)cc2)n2nc(C(C)(F)F)nc2n1` [DSM-265], the IC50 is 2.6 nM in the data set with Plasmodium falciparum [6]; 1660 nM in data set [7]; 1.8 nM in the data set with Plasmodium falciparum [8]; 48.1 nM in data set [10]; above 10 µg/mL at CYP450. Further, the ED90 in the data set with Plasmodium falciparum [9] was 3 mg/kg.
With `COc1cc(NCCCC(C)N)c2ncccc2c1` (centres undefined) [QUINOCIDE], in data set [11], the dose excreted was below 1%.
In the case of `CC(C)(C)c1cc(O)c(CN)c(C(C)(C)C)c1`, the half-maximal inhibitory concentration (IC50) in the data set on Plasmodium falciparum [6] is 9.6 nM; in the data set on Plasmodium falciparum [8], 91.5 nM. Further, the pKa in [3] was found to be 7.2.
Regarding `COc1cc(NC(C)CCCN)c2ncccc2c1` (centres undefined) [PRIMAQUINE], in data set [11], the dose excreted is below 1%.
With `COC(=O)[C@]1(C)C[C@H](c2ccccc2)N2[C@@H](C)CC(=O)N21`, the concentration for half-maximal inhibition (IC50) in data set [12] was 2900 nM.
With `Nc1ncc(-c2ccc(C(=O)N3CCNCC3)cc2)nc1-c1ccc(C(F)(F)F)cc1`, the IC50 was determined as 4.7 nM in the data set on Plasmodium falciparum [6], 23 nM in [13] and 5.4 nM in the data set on Plasmodium falciparum [8]. In data set [3], the pKa was determined as 8.1. Moreover, in the data set with Plasmodium berghei [14], the ED90 stood at 0.25 mg/kg.
For `COc1ccc(NC(=O)N2CCCCN3[C@H](CN(C)C)[C@H](c4ccc(C#Cc5ccccc5)cc4)[C@@H]3C2)cc1`, in data set [7], the IC50 worked out at 2100 nM. Further, half-maximal cytotoxicity in the data set with HepG2 (CC50) was put at 9000 nM. In data set [3], this molecule gave a pKa of 5. For the same molecule, the EC50 (usually the concentration giving half of the maximal effect) was found to be 3 nM with Plasmodium falciparum [15] and 9 nM in the data set with Plasmodium falciparum [16].
Consider `COC(=O)N1CCN(C(=N)c2cccc(NC(=O)Nc3ccc(S(=O)(=O)NCc4ccc(S(N)(=O)=O)cc4)cc3)c2)CC1`, for which the EC50 stood at 5 nM with Plasmodium falciparum [6] and 2 nM in the data set with Plasmodium falciparum [8].
Consider `CC(=O)N1CCN(c2ccc(CN(C(=O)/C=C/c3ccc(C(F)(F)F)cc3)[C@@H](Cc3ccccc3)C(=O)N3CCN(Cc4ccc(N(C)CCO)cc4)CC3)cc2)CC1`, for which the IC50 in the data set on L6 was 8850 nM; in the data set on Plasmodium falciparum [6] it was 0.46 nM; in the data set with Plasmodium falciparum [8], 10 nM. Further, the pKa in data set [3] stood at 7.5. In the data set with Plasmodium falciparum [9], this molecule showed an ED90 of 8.4 mg/kg.
Take `CCC1CCN(CC(CC(C)C)Nc2ccnc3cc(Cl)ccc23)CC1` (centres undefined): the half-maximal inhibitory concentration (IC50) with Plasmodium falciparum [17] amounted to 57 nM; in the data set on Plasmodium falciparum [18] it was 97.8 nM. For the same molecule, in the data set on Plasmodium yoelii, the Activity was 100%. Further, the survival at 96 h in [19] was 100%.
`Cc1nc(Nc2ccc(S(F)(F)(F)(F)F)cc2)c2c(C)noc2n1` showed an IC50 in data set [20] of 36 nM. In addition, a half-maximal response in the data set on Plasmodium falciparum [21] (EC50) required 17 nM.
In the case of `C=C(c1ccc(OC(C)(C)COC(=O)CCC(=O)O)cc1)C1COC2(OO1)C1CC3CC(C1)CC2C3` (centres undefined), the ED90 in data set [22] is 18.3 mg/kg. The pKa in data set [3] was 4. For the same molecule, in the data set with Plasmodium falciparum [16], half-maximal inhibition (IC50) required 49 nM.
Take `COc1cc(NCCCCCNC(C)C)c2ncccc2c1` [PENTAQUINE]: the dose excreted in [11] was below 1%.
`O=[N+]([O-])c1cccc(-c2csc(Nc3nc(NNc4ccccc4)nc(NNc4ccccc4)n3)n2)c1`: the midpoint of inhibition with Plasmodium falciparum [23], the IC50, lay at 11.3 µg/mL (≈ 22 µM).
With `c1cc(N2CCOCC2)nc(NCCNc2nc(N3CCOCC3)nc(N3CCOCC3)n2)n1`, the half-maximal inhibitory concentration (IC50) in the data set on Plasmodium falciparum [24] is 1320 nM; in [25], above 10100 nM; in the data set on Plasmodium falciparum [26], 1180 nM.
`O=C(c1ccc(OC[C@H](O)Cn2ncnn2)cc1)N1CC[C@H](c2ccc(F)cc2)C1` displayed a pKa in [3] of 12.6.

(Values after ChEMBL document CHEMBL5104092, “An insight into the recent development of the clinical candidates for the treatment of malaria and their target proteins” (Eur J Med Chem, 2021).)
